Reference: patent publication US4070484A, “Antiallergic composition containing aromatic carboxylic amide derivatives and method of using the same” (Kissei Pharmaceutical Co., Ltd., priority 1973, dated 1978)
Entries after “also recorded” stand apart in the source; their conditions may differ. Read-outs that look alike come from different tables or passages of the source.

Columns and labels:
[1] = system: mast cells; conditions: known art, cited from earlier work
[2] = system: sensitized mesenteric mast cells; test: Effect on the Disruption of the Sensitized Mast Cells; type: cell-based, rat; conditions: 10^-5 g/ml, 5 minutes prior to the treatment of antigen
Procedure: Mesenteric mast cells isolated from normal rats were sensitized passively by means of incubation with rat reaginic antibody at 37° C. After termination of the incubation, the specific antigen (DNP-Ascaris) was added to the incubation medium, then these mast cells in mesentery were fixed with formalin and stained with 0.1 % toluidine blue (in acetic acid buffer; pH: 4.6). The number of mast cells disrupted as a consequence of the antigen-antibody reaction were counted under a microscope. The number of the mast cells disrupted were also counted without the addition of the specific antigen.
A given test compound dissolved in 1 % NaHCO3 solution was added to the incubation medium at a concentration of 10^-5 g/ml, 5 minutes prior to the treatment of antigen, while only the vehicle was added to the control group.
The efficacy of the test compounds to inhibit the mast cell disruption was compared with the value (%) calculated using the following formula: [formula] wherein P stands for the percentage of disrupted mast cells in the control group, Q for the percentage of mast cells disrupted spontaneously and R for the percentage of disrupted mast cells in the group treated with a given test compound.

[3] = system: antiallergic action, oral administration to mammalia; conditions: known art; cited from earlier work
[4] = system: experimental asthma in rats; test: Experimental Asthma in Rats; type: in vivo, rat; conditions: for minimal effective dose: Rattus norvegicus, oral, 2 hours before antigen injection
Procedure: Twenty normal male rats weighing 120-150 g were divided into four groups each consisting of five rats. All of the rats were sensitized passively by means of intravenous injection of rat reaginic antibody. After a lapse of 22 hours of sensitization, 5 milliliters of a 1% aqueous solution of NaHCO3 containing (3',4'-dimethoxycinnamoylamino)-benzoic acid* in a dose of 0 mg/kg (control), 5 mg/kg, 10 mg/kg and 20 mg/kg were orally administered to the rats in each group, and then canulation was begun on both the trachea and the common carotid artery on the rats. The rate and volume of respiration and systemic blood pressure were recorded simultaneously on a polygraph.
After 2 hours of administration, the challenge symptoms were subjected, by means of injection of the antigen, and the results are shown in the drawing attached herewith.

[5] = Acute Toxicity (LD50) in rats; type: in vivo; conditions: rat, in vivo, mortality on the 8th day
Procedure: (§1) The median lethal dose (LD50) of the new aromatic carboxylic acid amide derivatives of this invention were determined in dd-stain male and female mice (6 weeks old) by oral administration and in Wistar strain male and female rats (7 weeks old) by oral and intraperitoneal administration. Each animal selected for the experiment was maintained in an air conditioned room at a temperature of 22° ± 1° C and a relative humidity of 55 ± 5% during the full course of the experiment. All animals were fed compressed pellets (CE-2 type produced by Japan CLEA Co.) and water was available ad libitum by bottle. Five groups of ten animals for each administration route were used.
(§2) Since these compounds were isoluble in water, they were suspended in a 0.5% aqueous solution of carboxymethylcellulose at each dosage level. The administrative volume of each agent to 10 g body weight mouse was 0.2 ml for oral administration, while that to 100g body weight of rat was 0.5 ml for intraperitoneal and oral administrations.
(§3) The LD50 values were calculated from the mortality on the 8th day by the Litchfield-Wilcoxon's method.

[6] = system: Wistar strain rats; test: Acute Toxicity (LD50) in rats; type: in vivo; conditions: mortality on the 8th day, 11520 min
Procedure: as §1, §2, §3

[7] = Acute Toxicity (LD50) in mice; type: in vivo; conditions: mouse, in vivo, po, mortality on the 8th day
Procedure: as §1, §2, §3

[8] = system: dd-stain mice; test: Acute Toxicity (LD50) in mice; type: in vivo; conditions: oral, mortality on the 8th day, 11520 min
Procedure: as §1, §2, §3

[9] = system: homologous passive cutaneous anaphylaxis (antigen-antibody reaction); test: Homologous Passive Cutaneous Anaphylaxis in Rats; type: in vivo, rat (Wistar male); conditions: Rattus norvegicus, po; 200 mg/kg orally 2 hours prior to the injection of antigen
Procedure: Wistar male rats weighing 120-150 g were used in this experiment. […]. Normal rats were sensitized passively with dilution of the antibody by means of intradermal injection. After 48 hours of the sensitization, the mixture of antigen (EA) and evens blue was injected intravenously. The animals were killed by a blow on the head 30 minutes after the injection, and then the blue spot resulted from the antigen-antibody reaction was measured photometrically.
A given test compound dissolved in 1 % NaHCO3 solution was administrated in a dose of 200 mg/kg orally 2 hours prior to the injection of antigen, while only the vehicle solution was administered to the control group.
The efficacy of the test compounds to inhibit the homologous passive cutaneous anaphlaxis was compared with the value (%) calculated using the following formula: [formula] wherein A stands for the amount of leaked dye in control group and B for the amount of leaked dye in the group administered with a given test compound.

[10] = system: child patients having asthma bronchiale; test: Clinical trial for children; type: in vivo, human; conditions: oral
Description: A clinical trial was made by orally administering Compound No. 33 to child patients having asthma bronchiale. Child patients having asthma bronchiale in atopic and mixed forms were chosen for the clinical trial. Determination of the effect was integrally judged from the extent of subjective symptoms (the number of asthma attacks, the degree of dyspnea, wheeze, the number of cough attacks and sputum expectoration), objective findings (dry rale) and pulmonary function test.
(§4) The effect was evaluated by five grades of "remarkable improvement", "moderate improvement", "slight improvement", "unchanged"and "aggravated". A daily dose (100-200 mg) of the active compound in the powdery preparation obtained in Example 12 was administered orally to patients in equal portions four times a day, i.e., after every meal and before sleeping.

[11] = system: adult patients having asthma bronchiale; test: Clinical trial for adults; type: in vivo, human; conditions: oral
Description: A clinical trial was made by administering 2-(3',[…]-dimethoxycinnamoylamino)-benzoic acid orally to adult patients having asthma bronchiale. These patients having asthma bronchiale were chosen from those suffering from atopic and mixed forms. Determination of the effect were integrally judged from the extent of subjective symptoms (the number of asthma attacks, the degree of dyspnea, wheeze, the number of cough attacks and sputum expectoration), objective findings (dry rale) and pulmonary function test.
as §4, with “"unchanged", and” for “"unchanged"and”, “(400-600” for “(100-200”, “daily, ie,” for “a day, i.e.,”

SMILES: O=C(O)c1cc(=O)c2c(OCC(O)COc3cccc4oc(C(=O)O)cc(=O)c34)cccc2o1 [Disodium cromoglycate]
- inhibition of mast cell disruption (in words) [1]: inhibitor of mast cell disruption
- inhibition of mast cell disruption (in words) ([1]; listed as disodium cromoglycate): inhibits the disruption of mast cells and release therefrom of chemical mediators
- Inhibition percentage (mast cell disruption) [2]: 16%
- pharmacological effect when administered orally (in words) [3]: loses its pharmacological effect when administered orally

SMILES: COc1ccc(C=CC(=O)Nc2ccccc2C(=O)O)cc1OC [Compound No. 33, N-(3',4'-dimethoxycinnamoyl)-anthranilic acid]
- minimal effective dose ([4]; read-out: dose showing inhibition of decrease in the rate of respiration): ≥ 5 mg/kg
- minimal effective dose ([4]; read-out: dose showing inhibition of decrease in the volume of respiration): ≥ 10 mg/kg
- Asthmatic symptoms resulting from the challenge ([4]; oral 5, 10, 20 mg/kg): observed in the control group only
- effect on depression of blood pressure just after the challenge ([4]; oral 5, 10, 20 mg/kg, just after the challenge): no inhibiting effect
- effect on subsequent depression of blood pressure ([4]; oral 5, 10, 20 mg/kg, subsequent depression): showed an inhibiting effect on subsequent depression
- LD50 at 192 h ([5]; ip, intraperitoneal): 385 mg/kg
- LD50 at 192 h ([5]; po): 1850 mg/kg
- LD50 ([6]; intraperitoneal): 338 mg/kg
- LD50 ([6]; oral): 2030 mg/kg
- Inhibition percentage (mast cell disruption) [2]: 33%
- LD50 at 192 h [7]: 705 mg/kg
- LD50 [8]: 500 mg/kg
- inhibition at 200 mg/kg [9]: 46.1%
- Evaluation ([10]; 200 mg × 15 days): mod. impr.
- Side effect ([10]; 200 mg × 15 days): none
- Evaluation ([10]; 200 mg × 29 days): slight impr.
- Side effect ([10]; 200 mg × 29 days): none
- Evaluation ([10]; 200 mg × 35 days): slight imp.
- Side effect ([10]; 200 mg × 35 days): none
- Evaluation ([11]; 400mg × 14 days): slight imp.
- Side effect ([11]; 400mg × 14 days): none
- Evaluation ([11]; 400mg × 21 days): mod. impr.
- Side effect ([11]; 400mg × 21 days): none
- Side effect ([11]; 600mg × 14 days): none
- Evaluation ([11]; 600mg × 14 days, row): slight imp; also recorded: mod. impr
- Evaluation ([11]; 600mg × 20 days): unchanged
- Side effect ([11]; 600mg × 20 days): none
- Evaluation ([11]; 600mg × 21 days): unchanged
- Side effect ([11]; 600mg × 21 days): none
- Evaluation ([11]; 600mg × 24 days): mod. impr.
- Side effect ([11]; 600mg × 24 days): none
